From ChEMBL document CHEMBL1201862, “PubChem BioAssay data set” (2004) come the findings set out here.

Test systems include LOX IMVI; A498; CAKI-1; UACC-257; HOP-92; EKVX; KM12; SK-MEL-2; OVCAR-5; OVCAR-8; HT-29; RPMI-8226; SW-620; SNB-19; Malme-3M; NCI-H23; A549; SF-295; SF-268; MOLT-4.
Experiment in all cases: NCI tumour cell line growth inhibition, 48 h

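These data come from cells grown in 96-well plates and exposed to compound for 48 hours at five concentrations. GI50: concentration for 50% inhibition of growth.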 The source made the active and inactive calls. Rule as the data show it: active = GI50 up to about 1.1 µM and inactive = higher.

Take `CCCS(=O)(=O)O`: the GI50 in the assay on LOX IMVI, in the assay with A498, in the assay on CAKI-1, in the assay with UACC-257, with HOP-92 and in the assay on EKVX was > 100 µM (inactive) throughout. The GI50 in the assay with KM12, in the assay with SK-MEL-2, in the assay on OVCAR-5, in the assay with OVCAR-8, in the assay on HT-29 and with RPMI-8226 was > 100 µM (inactive) in each case. The GI50 in the assay on SW-620, in the assay with SNB-19, with Malme-3M, in the assay on NCI-H23, in the assay with A549 and with SF-295 was > 100 µM (inactive) each time. In addition, the GI50 in the assay with SF-268 and with MOLT-4 was > 100 µM (inactive) in each case.
As to `CCC1(OC(=O)CN)C(=O)OCc2c1cc1n(c2=O)Cc2cc3ccccc3nc2-1` (stereo not drawn), the GI50 in the assay on LOX IMVI is < 0.0102 µM (active); in the assay with A498 it was 0.0512 µM (active); in the assay with CAKI-1, 0.01 µM (active); with UACC-257, 0.0353 µM (active); in the assay on HOP-92, 0.547 µM (active); with EKVX, 0.598 µM (active). For the same compound, the GI50 is 0.128 µM (active) in the assay on KM12; 0.0794 µM (active) in the assay on SK-MEL-2; 0.0457 µM (active) in the assay with OVCAR-5; < 0.0132 µM (active) with RPMI-8226; 0.067 µM (active) in the assay on SW-620; 0.01 µM (active) with SNB-19. Moreover, the GI50 with Malme-3M is 0.151 µM (active); with NCI-H23, 0.01 µM (active); with A549, 0.011 µM (active); in the assay on SF-295, 0.01 µM (active); in the assay on SF-268, 0.01 µM (active); with MOLT-4 it was 0.01 µM (active).
Consider `CC1C(=O)N(c2ccccc2)NC12CCCc1ccccc12` (stereo not drawn), for which the GI50 in the assay on LOX IMVI, in the assay with A498, with CAKI-1, in the assay on UACC-257, with HOP-92 and in the assay on EKVX was > 100 µM (inactive) throughout. Further, the GI50 in the assay with KM12, in the assay on SK-MEL-2, in the assay with OVCAR-5, in the assay with OVCAR-8, in the assay on HT-29 and with RPMI-8226 was > 100 µM (inactive) in each case. For the same compound, the GI50 in the assay with SW-620, in the assay with SNB-19, in the assay on Malme-3M, with NCI-H23, in the assay with A549 and with SF-295 was > 100 µM (inactive) throughout. Also, the GI50 in the assay with SF-268 and with MOLT-4 was > 100 µM (inactive) throughout.
For the compound `CC(C)(C)C(=O)OCC1C(=O)OCC1C(=O)N1Cc2cc3ccccc3nc2C1` (stereo not drawn), the GI50 in the assay with LOX IMVI is 4.34 µM (inactive); in the assay on A498 it was 13.2 µM (inactive); with CAKI-1, 1.28 µM (inactive); with UACC-257, 4.42 µM (inactive); with HOP-92, 1.5 µM (inactive); in the assay on EKVX it was 7.41 µM (inactive). Also, the GI50 was 15.8 µM (inactive) with KM12; 8.59 µM (inactive) with SK-MEL-2; 10.5 µM (inactive) in the assay with OVCAR-5; 3.99 µM (inactive) in the assay with OVCAR-8; 3.5 µM (inactive) in the assay on HT-29; 1.31 µM (inactive) with RPMI-8226. The GI50 with SW-620 was 1.57 µM (inactive); in the assay on SNB-19 it was 18.3 µM (inactive); in the assay with Malme-3M, 1.46 µM (inactive); in the assay with NCI-H23, 4.55 µM (inactive); with A549, 15.2 µM (inactive); with SF-295, 14.3 µM (inactive). Besides, the GI50 is 8.91 µM (inactive) in the assay on SF-268 and 1.06 µM (active) in the assay with MOLT-4.
As for `COc1cc([C@@H]2c3cc4c(cc3[C@@H](c3c(O)cc(O)c5c3O[C@H](c3ccc(O)c(O)c3)[C@@H](O)C5)[C@H]3COC(=O)[C@H]23)OCO4)cc(OC)c1O`, the GI50 in the assay on LOX IMVI, with A498, in the assay on CAKI-1, with UACC-257, in the assay on HOP-92 and in the assay on EKVX was > 100 µM (inactive) each time. For the same compound, the GI50 in the assay with KM12 is > 100 µM (inactive); in the assay with SK-MEL-2 it was > 100 µM (inactive); in the assay on OVCAR-5, > 100 µM (inactive); in the assay with OVCAR-8 it was > 100 µM (inactive); with HT-29, > 100 µM (inactive); in the assay on RPMI-8226, 53 µM (inactive). Also, the GI50 in the assay on SW-620 was 58.9 µM (inactive); in the assay with SNB-19, > 100 µM (inactive); in the assay with Malme-3M, > 100 µM (inactive); in the assay with NCI-H23, > 100 µM (inactive); in the assay with A549 it was > 100 µM (inactive); in the assay with SF-295 it was > 100 µM (inactive). Moreover, the values for the GI50 with SF-268 and in the assay on MOLT-4 were > 100 µM (inactive) and 44 µM (inactive), respectively.
Take `CC(=O)[C@H]1CCC2[C@@H]3CC=C4C(O)C(OS(=O)(=O)O)CC[C@]4(C)C3CC[C@@]21C` (stereo partly drawn): the GI50 in the assay on LOX IMVI, in the assay with A498, in the assay on CAKI-1, in the assay with HOP-92, in the assay with EKVX and in the assay with KM12 was > 100 µM (inactive) each time. Also, the GI50 in the assay with SK-MEL-2, in the assay with OVCAR-5, in the assay on OVCAR-8, in the assay on HT-29, in the assay on RPMI-8226 and in the assay on SW-620 was > 100 µM (inactive) each time. Besides, the GI50 in the assay with SNB-19, in the assay with Malme-3M, in the assay on NCI-H23, with A549, with SF-295 and with SF-268 was > 100 µM (inactive) in each case. The GI50 in the assay on MOLT-4 is > 100 µM (inactive).
Consider `O=c1ccc2cc3ccc4cccc5ccc(c2o1)c3c45`, for which the GI50 in the assay with LOX IMVI is 12.1 µM (inactive); in the assay on A498, 16 µM (inactive); in the assay with CAKI-1, > 100 µM (inactive); in the assay with HOP-92, 5.24 µM (inactive); with EKVX, > 100 µM (inactive); in the assay with SK-MEL-2 it was > 100 µM (inactive). Further, the GI50 in the assay with OVCAR-8 is 23.2 µM (inactive); with HT-29, 22.2 µM (inactive); in the assay on RPMI-8226, > 100 µM (inactive); in the assay with SW-620, 31.8 µM (inactive); with SNB-19 it was 37.3 µM (inactive); in the assay with Malme-3M, > 100 µM (inactive). Besides, the GI50 in the assay with NCI-H23 was 67.8 µM (inactive); in the assay with SF-295, 33 µM (inactive); with SF-268, 28.8 µM (inactive); in the assay on MOLT-4, > 100 µM (inactive).
